Measured values: patent publication US20060069132A1, “Azolecarboxamide herbicides” (priority 2004, published 2006)

Assays:
[1] = tested on: rice; experiment: Test B flooded paddy test; type: in vivo, Oryza sativa; conditions: 1000 g ai/ha, scale 0 to 100 (0 no effect, 100 complete control)
Method in brief: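 Read-out: visual comparison with controls, scored 0 to 100, where 100 means complete control and 0 no effect. Formulated chemicals were applied postemergence to plants 2–18 cm tall (1- to 4-leaf), or to flooded-paddy plants at the 2-leaf stage, then held 13 to 15 days under glass.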

[2] = tested on: barnyardgrass; experiment: Test A pre-/postemergence herbicide test; type: in vivo, Echinochloa crus-galli
Method in brief: (§1)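 Seeds sown in sandy loam received a preemergence directed soil spray of compound in non-phytotoxic solvent with surfactant; postemergence plants (2–10 cm, one- to two-leaf stage) were sprayed to runoff at the same time. After ~10 days in greenhouse, injury was rated visually versus untreated controls (0 = no effect, 100 = complete control).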

[3] = tested on: large crabgrass; experiment: Test B pre-/postemergence herbicide test; type: in vivo, Digitaria sanguinalis; conditions: for Crabgrass, Large plant response rating: postemergence
Method in brief: (§2)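 Visual rating, 0 (no effect) to 100 (complete control), versus untreated controls after 13–15 d in greenhouse. Pre- and postemergence applications (postemergence plants 2–18 cm, 1–4 leaves); flooded paddy arm at 2-leaf stage. Compounds in non-phytotoxic solvent plus surfactant.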

[4] = tested on: blackgrass; experiment: Test B postemergence herbicide test; type: in vivo, Alopecurus myosuroides; conditions: postemergence
Method in brief: (§3)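 Postemergence plants were sprayed with formulated test chemicals at 2 to 18 cm height (1- to 4-leaf stage); paddy species were grown to the 2-leaf stage. After 13 to 15 days in a greenhouse, injury was rated visually against untreated controls on a 0–100 scale (0 = no effect, 100 = complete control).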

[5] = tested on: giant foxtail; experiment: Test B pre-/postemergence herbicide test; type: in vivo, Setaria faberi; conditions: for Foxtail, Giant plant response rating: postemergence
Method in brief: as §2

[6] = tested on: giant foxtail; experiment: Test A pre-/postemergence herbicide test; type: in vivo, Setaria faberi
Method in brief: as §1

[7] = tested on: Surinam grass; experiment: Test B pre-/postemergence herbicide test; type: in vivo, Urochloa decumbens; conditions: for Surinam Grass plant response rating: postemergence
Method in brief: as §2

[8] = tested on: lambsquarters; experiment: Test B pre-/postemergence herbicide test; type: in vivo, Chenopodium album; conditions: for Lambsquarters plant response rating: postemergence
Method in brief: as §2

[9] = tested on: velvetleaf; experiment: Test B pre-/postemergence herbicide test; type: in vivo, Abutilon theophrasti; conditions: for Velvetleaf plant response rating: postemergence; for Plant response rating, Velvetleaf: 0 = no effect, 100 = complete control
Method in brief: as §2

[10] = tested on: barnyardgrass; experiment: Test B flooded paddy test; type: in vivo, Echinochloa crus-galli; conditions: 1000 g ai/ha, scale 0 to 100 (0 no effect, 100 complete control)
Method in brief: as §3

[11] = tested on: morningglory; experiment: Test B pre-/postemergence herbicide test; type: in vivo, Ipomoea coccinea; conditions: for Morningglory plant response rating: postemergence
Method in brief: (§4)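 Seeds were planted and treated preemergence with compounds formulated in a non-phytotoxic solvent mixture containing surfactant, while plants at the 1- to 4-leaf stage (2 to 18 cm) received postemergence sprays. Flooded paddy plants were grown to the 2-leaf stage. After 13 to 15 days in a greenhouse, injury was visually rated 0–100 against untreated controls.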

[12] = tested on: cocklebur; experiment: Test B pre-/postemergence herbicide test; type: in vivo, Xanthium strumarium; conditions: for Cocklebur plant response rating: postemergence
Method in brief: as §4

[13] = tested on: rice; experiment: Test B pre-/postemergence herbicide test; type: in vivo, Oryza sativa; conditions: preemergence; for Plant response rating, Rice: 500 g ai/ha, visual rating
Method in brief: as §2

[14] = tested on: wild oat; experiment: Test B postemergence herbicide test; type: in vivo, Avena fatua; conditions: postemergence
Method in brief: (§5)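 Each value is a visual 0–100 response rating taken against controls 13 to 15 days after treatment in the greenhouse. Plants received formulated chemical postemergence at the 1- to 4-leaf stage or, in flooded paddy, at the 2-leaf stage.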

[15] = tested on: velvetleaf; experiment: Test A pre-/postemergence herbicide test; type: in vivo, Abutilon theophrasti
Method in brief: as §1

[16] = tested on: corn; experiment: Test B pre-/postemergence herbicide test; type: in vivo, Zea mays; conditions: for Corn plant response rating: postemergence
Method in brief: as §2

[17] = tested on: wheat; experiment: Test B postemergence herbicide test; type: in vivo, Triticum aestivum; parameters: key to Wheat plant response rating: 0 = no effect, 100 = complete control; conditions: postemergence
Method in brief: as §5

[18] = tested on: morningglory; experiment: Test A pre-/postemergence herbicide test; type: in vivo, Ipomoea spp.
Method in brief: as §1

[19] = tested on: large crabgrass; experiment: Test A pre-/postemergence herbicide test; type: in vivo, Digitaria sanguinalis
Method in brief: as §1

[20] = tested on: barnyardgrass; experiment: Test B pre-/postemergence herbicide test; type: in vivo, Echinochloa crus-galli; conditions: for Barnyardgrass plant response rating: postemergence
Method in brief: as §4

[21] = tested on: small flower umbrella sedge; experiment: Test B flooded paddy test; type: in vivo, Cyperus difformis; conditions: 1000 g ai/ha, scale 0 to 100 (0 no effect, 100 complete control)
Method in brief: as §3

[22] = tested on: pigweed; experiment: Test B pre-/postemergence herbicide test; type: in vivo, Amaranthus retroflexus; conditions: for Pigweed plant response rating: postemergence
Method in brief: as §2

[23] = tested on: redroot pigweed; experiment: Test A pre-/postemergence herbicide test; type: in vivo, Amaranthus retroflexus
Method in brief: as §1

[24] = tested on: ducksalad; experiment: Test B flooded paddy test; type: in vivo, Heteranthera limosa; conditions: 1000 g ai/ha, scale 0 to 100 (0 no effect, 100 complete control)
Method in brief: as §3

[25] = Postemergence, 500 g ai/ha, 0 to 100 scale, 0 no effect, 100 complete control
[26] = Postemergence, 2000 g ai/ha, 0 to 100 scale, 0 no effect, 100 complete control
[27] = Preemergence, 2000 g ai/ha, visual rating, 0 to 100 scale (0 no effect, 100 complete control)
[28] = preemergence, 500 g ai/ha, visual injury, 0 to 100 scale (0 no effect, 100 complete control)
[29] = 125 g ai/ha, 0 = no effect, 100 = complete control, preemergence
[30] = 125 g ai/ha, visual rating, scale 0 (no effect) to 100 (complete control)
[31] = 500 g ai/ha, visual rating, 0 = no effect, 100 = complete control, preemergence
[32] = 500 g ai/ha, scale 0 to 100, 0 is no effect, 100 is complete control
[33] = 500 g ai/ha, visual rating, preemergence
[34] = 0 = no effect, 100 = complete control
[35] = 125 g ai/ha, 0 is no effect, 100 is complete control, preemergence

C#CCNC(=O)c1cncc(NC(=O)c2cc(C(C)(C)C)nn2CC)n1 [Compound 289]
Rice plant response rating [1]: 0
Barnyardgrass plant response rating [2, 25]: 10
Plant response rating, Barnyardgrass [2, 26]: 40
Barnyardgrass plant response rating [2, 27]: 50
Barnyardgrass plant response rating [2, 28]: 0
Crabgrass, Large plant response rating (0 to 100 scale) [3, 29]: 0
Crabgrass, Large plant response rating [3, 30]: 0
Plant response rating, Crabgrass, Large [3, 31]: 20
Crabgrass, Large plant response rating [3, 32]: 0
Blackgrass plant response rating [4, 30]: 10
Blackgrass plant response rating [4, 32]: 10
Foxtail, Giant plant response rating (0 to 100 scale) [5, 29]: 0
Foxtail, Giant plant response rating [5, 30]: 20
Plant response rating, Foxtail, Giant [5, 31]: 0
Foxtail, Giant plant response rating [5, 32]: 60
Foxtail, Giant plant response rating [6, 25]: 10
Plant response rating, Foxtail, Giant [6, 26]: 70
Foxtail, Giant plant response rating [6, 27]: 40
Foxtail, Giant plant response rating [6, 28]: 10
Surinam Grass plant response rating (0 to 100 scale) [7, 29]: 0
Surinam Grass plant response rating [7, 30]: 0
Plant response rating, Surinam Grass [7, 31]: 0
Surinam Grass plant response rating [7, 32]: 0
Lambsquarters plant response rating (0 to 100 scale) [8, 29]: 0
Lambsquarters plant response rating [8, 30]: 0
Plant response rating, Lambsquarters [8, 31]: 100
Lambsquarters plant response rating [8, 32]: 30
Velvetleaf plant response rating [9, 30]: 0
Plant response rating, Velvetleaf [9, 33]: 0
Velvetleaf plant response rating [9, 32]: 10
Barnyardgrass plant response rating [10]: 0
Morningglory plant response rating (0 to 100 scale) [11, 29]: 0
Morningglory plant response rating [11, 30]: 0
Plant response rating, Morningglory [11, 31]: 0
Morningglory plant response rating [11, 32]: 0
Cocklebur plant response rating (0 to 100 scale) [12, 29]: 0
Cocklebur plant response rating [12, 30]: 0
Plant response rating, Cocklebur [12, 31]: 0
Cocklebur plant response rating [12, 32]: 0
Rice plant response rating (0 to 100 scale) ([13]; 125 g ai/ha, 0 = no effect, 100 = complete control): 0
Plant response rating, Rice [13, 34]: 0
Oat, Wild plant response rating [14, 30]: 20
Oat, Wild plant response rating [14, 32]: 30
Velvetleaf plant response rating [15, 25]: 0
Plant response rating, Velvetleaf [15, 26]: 5
Velvetleaf plant response rating [15, 27]: 20
Velvetleaf plant response rating [15, 28]: 0
Corn plant response rating (0 to 100 scale) [16, 29]: 0
Corn plant response rating [16, 30]: 0
Plant response rating, Corn [16, 31]: 0
Corn plant response rating [16, 32]: 0
Wheat plant response rating [17, 30]: 20
Wheat plant response rating [17, 32]: 20
Morningglory plant response rating [18, 25]: 10
Plant response rating, Morningglory [18, 26]: 20
Morningglory plant response rating [18, 27]: 15
Morningglory plant response rating [18, 28]: 0
Crabgrass, Large plant response rating [19, 25]: 20
Plant response rating, Crabgrass, Large [19, 26]: 20
Crabgrass, Large plant response rating [19, 27]: 55
Crabgrass, Large plant response rating [19, 28]: 0
Barnyardgrass plant response rating (0 to 100 scale) [20, 29]: 0
Barnyardgrass plant response rating [20, 30]: 0
Plant response rating, Barnyardgrass [20, 31]: 0
Barnyardgrass plant response rating [20, 32]: 0
Sedge, Umbrella plant response rating [21]: 0
Pigweed plant response rating (0 to 100 scale) [22, 29]: 0
Pigweed plant response rating [22, 30]: 10
Plant response rating, Pigweed [22, 31]: 100
Pigweed plant response rating [22, 32]: 20
Pigweed plant response rating [23, 25]: 20
Plant response rating, Pigweed [23, 26]: 50
Pigweed plant response rating [23, 27]: 75
Pigweed plant response rating [23, 28]: 0
Ducksalad plant response rating [24]: 0

Cn1nc(C(C)(C)C)cc1C(=O)Nc1cccc(C(=O)NC2CC2)n1 [Compound 315]
Rice plant response rating [1]: 0
Barnyardgrass plant response rating [2, 25]: 20
Plant response rating, Barnyardgrass [2, 26]: 20
Barnyardgrass plant response rating [2, 27]: 5
Barnyardgrass plant response rating [2, 28]: 5
Plant response rating (0 to 100 scale), Crabgrass, Large [3, 35]: 0
Crabgrass, Large plant response rating [3, 30]: 0
Plant response rating, Crabgrass, Large [3, 31]: 20
Crabgrass, Large plant response rating [3, 32]: 10
Blackgrass plant response rating [4, 30]: 0
Blackgrass plant response rating [4, 32]: 0
Plant response rating (0 to 100 scale), Foxtail, Giant [5, 35]: 0
Foxtail, Giant plant response rating [5, 30]: 0
Plant response rating, Foxtail, Giant [5, 31]: 20
Foxtail, Giant plant response rating [5, 32]: 10
Foxtail, Giant plant response rating [6, 25]: 0
Plant response rating, Foxtail, Giant [6, 26]: 0
Foxtail, Giant plant response rating [6, 27]: 10
Foxtail, Giant plant response rating [6, 28]: 0
Plant response rating (0 to 100 scale), Surinam Grass [7, 35]: 0
Surinam Grass plant response rating [7, 30]: 20
Plant response rating, Surinam Grass [7, 31]: 10
Surinam Grass plant response rating [7, 32]: 20
Plant response rating (0 to 100 scale), Lambsquarters [8, 35]: 0
Lambsquarters plant response rating [8, 30]: 50
Plant response rating, Lambsquarters [8, 31]: 80
Lambsquarters plant response rating [8, 32]: 60
Plant response rating (0 to 100 scale), Velvetleaf [9, 35]: 10
Velvetleaf plant response rating [9, 30]: 20
Plant response rating, Velvetleaf [9, 33]: 20
Velvetleaf plant response rating [9, 32]: 20
Barnyardgrass plant response rating [10]: 0
Plant response rating (0 to 100 scale), Morningglory [11, 35]: 0
Morningglory plant response rating [11, 30]: 0
Plant response rating, Morningglory [11, 31]: 0
Morningglory plant response rating [11, 32]: 20
Plant response rating (0 to 100 scale), Cocklebur [12, 35]: 0
Cocklebur plant response rating [12, 30]: 20
Plant response rating, Cocklebur [12, 31]: 0
Cocklebur plant response rating [12, 32]: 20
Plant response rating (0 to 100 scale), Rice ([13]; 125 g ai/ha, 0 is no effect, 100 is complete control): 0
Plant response rating, Rice [13, 34]: 0
Oat, Wild plant response rating [14, 30]: 0
Oat, Wild plant response rating [14, 32]: 10
Velvetleaf plant response rating [15, 25]: 0
Plant response rating, Velvetleaf [15, 26]: 0
Velvetleaf plant response rating [15, 27]: 30
Velvetleaf plant response rating [15, 28]: 10
Plant response rating (0 to 100 scale), Corn [16, 35]: 0
Corn plant response rating [16, 30]: 10
Plant response rating, Corn [16, 31]: 0
Corn plant response rating [16, 32]: 20
Wheat plant response rating [17, 30]: 0
Wheat plant response rating [17, 32]: 0
Morningglory plant response rating [18, 25]: 0
Plant response rating, Morningglory [18, 26]: 0
Morningglory plant response rating [18, 27]: 10
Morningglory plant response rating [18, 28]: 5
Crabgrass, Large plant response rating [19, 25]: 20
Plant response rating, Crabgrass, Large [19, 26]: 20
Crabgrass, Large plant response rating [19, 27]: 15
Crabgrass, Large plant response rating [19, 28]: 5
Plant response rating (0 to 100 scale), Barnyardgrass [20, 35]: 0
Barnyardgrass plant response rating [20, 30]: 10
Plant response rating, Barnyardgrass [20, 31]: 20
Barnyardgrass plant response rating [20, 32]: 20
Sedge, Umbrella plant response rating [21]: 0
Plant response rating (0 to 100 scale), Pigweed [22, 35]: 20
Pigweed plant response rating [22, 30]: 10
Plant response rating, Pigweed [22, 31]: 100
Pigweed plant response rating [22, 32]: 50
Pigweed plant response rating [23, 25]: 10
Plant response rating, Pigweed [23, 26]: 20
Pigweed plant response rating [23, 27]: 45
Pigweed plant response rating [23, 28]: 15
Ducksalad plant response rating [24]: 0
